Results from patent US20050234046A1 (Kalypsys, Inc., priority 2004, published 2005).

Tests used:
Test in all cases: Transient transfection (transactivation) assay in CV-1 cells, GAL4-PPAR chimera, luciferase reporter
Type in all cases: cell-based
PPAR delta = molecular target: T1, PPAR delta (Homo sapiens, UniProt Q03181)
T1 construct: expressed in transfected cells; host or cells: CV-1 cells
T1 sequence (Q03181 211-439 limits assumed): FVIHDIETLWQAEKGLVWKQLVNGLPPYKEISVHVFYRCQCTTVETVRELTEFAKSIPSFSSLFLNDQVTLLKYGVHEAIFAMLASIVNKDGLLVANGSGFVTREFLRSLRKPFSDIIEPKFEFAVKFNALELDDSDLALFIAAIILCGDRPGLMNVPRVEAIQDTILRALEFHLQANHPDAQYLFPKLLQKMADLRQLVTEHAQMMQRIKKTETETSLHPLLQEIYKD
Description: (§1) Compounds may be screened for functional potency in transient transfection assays in CV-1 cells or other cell types for their ability to activate the PPAR subtypes (transactivation assay). A previously established chimeric receptor system was utilized to allow comparison of the relative transcriptional activity of the receptor subtypes on the same synthetic response element and to prevent endogenous receptor activation from complicating the interpretation of results. […] The ligand binding domains for murine and human PPAR-alpha, PPAR-gamma, and PPAR-delta are each fused to the yeast transcription factor GAL4 DNA binding domain. CV-1 cells were transiently transfected with expression vectors for the respective PPAR chimera along with a reporter construct containing four or five copies of the GAL4 DNA binding site driving expression of luciferase. After 8-16 h, the cells are replated into multi-well assay plates and the media is exchanged to phenol-red free DME medium supplemented with 5% delipidated calf serum. 4 hours after replating, cells were treated with either compounds or 1% DMSO for 20-24 hours. Luciferase activity was then assayed with Britelite (Perkin Elmer) following the manufacturer's protocol and measured with either the Perkin Elmer Viewlux or Molecular Devices Acquest Xsee, for example, Kliewer, S. A., et. al. Cell 1995, 83, 813-819). Rosiglitazone is used as a positive control in the hPPAR-γ assay. Wy-14643 and GW7647 is used as a positive control in the hPPAR-α assay. GW501516 is used as the positive control in the hPPAR-δ assay.

PPAR alpha = molecular target: T2, PPAR alpha (Homo sapiens, UniProt Q07869)
T2 construct: expressed in transfected cells; host or cells: CV-1 cells
T2 sequence (Q07869 239-466 limits assumed): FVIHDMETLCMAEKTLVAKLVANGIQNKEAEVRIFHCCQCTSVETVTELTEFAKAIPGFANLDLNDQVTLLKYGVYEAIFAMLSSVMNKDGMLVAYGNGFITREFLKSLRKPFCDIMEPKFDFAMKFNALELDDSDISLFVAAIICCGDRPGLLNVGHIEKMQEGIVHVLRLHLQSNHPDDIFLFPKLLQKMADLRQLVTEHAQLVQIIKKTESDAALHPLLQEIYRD
Procedure, shortened: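 EC50 and efficacy come from a luciferase read-out after 20-24 hours of compound exposure (vehicle 1% DMSO) in transiently transfected CV-1 cells. These cells express a GAL4-PPAR ligand-binding-domain chimera plus a reporter with four or five GAL4 binding sites, and are kept in phenol-red free DME with 5% delipidated calf serum.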

PPAR gamma = molecular target: T3, PPAR gamma (Homo sapiens, UniProt P37231)
T3 construct: expressed in transfected cells; host or cells: CV-1 cells
T3 sequence (P37231 238-503 limits assumed): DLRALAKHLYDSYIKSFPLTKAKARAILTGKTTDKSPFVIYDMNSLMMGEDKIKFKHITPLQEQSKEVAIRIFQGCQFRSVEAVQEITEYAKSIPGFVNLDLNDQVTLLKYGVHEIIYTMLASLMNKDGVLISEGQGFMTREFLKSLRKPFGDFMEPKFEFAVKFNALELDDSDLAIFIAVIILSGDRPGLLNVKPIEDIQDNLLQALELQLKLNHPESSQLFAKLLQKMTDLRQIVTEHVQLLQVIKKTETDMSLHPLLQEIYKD
Description: as §1

Row | Structure (SMILES) | EC50 (PPAR delta) | EC50 (PPAR alpha) | EC50 (PPAR gamma)
1 | COc1ccc(S(=O)(=O)N2[C@H](C)CN(c3ccc(OC(F)(F)F)cn3)C[C@@H]2C)cc1CC(=O)O [Example 206, {5-[2,6-Dimethyl-4-(5-trifluoromethoxy-pyridin-2-yl)-piperazine-1-sulfonyl]-2-methoxy-phenyl}-acetic acid] | < 5 µM | > 100 µM | 5 to 100 µM
2 | O=C(O)Cc1cc(S(=O)(=O)N2CCN(c3ccc(C(F)(F)F)cn3)CC2)ccc1O [Example 207, {5-[4-(5-trifluoromethyl-pyridin-2-yl)-piperazine-1-sulfonyl]-2-hydroxy-phenyl}-acetic acid] | < 5 µM | 5 to 100 µM | 5 to 100 µM
3 | O=C(O)Cc1cc(S(=O)(=O)N2CCN(c3ccc(C(F)(F)F)cc3)CC2)ccc1O [Example 208, {5-[4-(4-trifluoromethyl-phenyl)-piperazine-1-sulfonyl]-2-hydroxy-phenyl}-acetic acid] | < 5 µM | 5 to 100 µM | > 100 µM
4 | C[C@@H]1CN(c2ccc(OC(F)(F)F)cc2)C[C@H](C)N1S(=O)(=O)c1ccc(O)c(CC(=O)O)c1 [Example 209, {5-[2,6-Dimethyl-4-(4-trifluoromethoxy-phenyl)-piperazine-1-sulfonyl]-2-hydroxy-phenyl}-acetic acid] | 5 to 100 µM | > 100 µM | > 100 µM
5 | O=C(O)CSCc1cccc(S(=O)(=O)N2CCN(c3ccc(C(F)(F)F)cc3)CC2)c1 [Example 210, {3-[4-(4-Trifluoromethyl-phenyl)-piperazine-1-sulfonyl]-benzylsulfanyl}-acetic acid] | 5 to 100 µM | 5 to 100 µM | 5 to 100 µM
6 | O=C(O)COCc1cccc(S(=O)(=O)N2CCN(c3ccc(C(F)(F)F)cc3)CC2)c1 [Example 211, {3-[4-(4-Trifluoromethyl-phenyl)-piperazine-1-sulfonyl]-benzyloxy}-acetic acid] | > 100 µM | > 100 µM | > 100 µM
7 | CC(C)(OCc1cccc(S(=O)(=O)N2CCN(c3ccc(C(F)(F)F)cc3)CC2)c1)C(=O)O [Example 212, 2-Methyl-2-{3-[4-(4-trifluoromethyl-phenyl)-piperazine-1-sulfonyl]-benzyloxy}-propionic acid] | > 100 µM | 5 to 100 µM | 5 to 100 µM
8 | Cc1cc(CC(=O)O)cc(S(=O)(=O)N2CCN(c3ccc(OC(F)(F)F)cc3)C[C@@H]2C)c1 [Example 213, {3-Methyl-5-[2-(S)-methyl-4-(4-trifluoromethoxy-phenyl)-piperazine-1-sulfonyl]phenyl}-acetic acid] | < 5 µM | 5 to 100 µM | 5 to 100 µM
9 | Cc1ccc(S(=O)(=O)N2CCN(c3ccc(OC(F)(F)F)cc3)C[C@@H]2C)cc1CC(=O)O [Example 214, {2-Methyl-5-[2-(S)-methyl-4-(4-trifluoromethoxy-phenyl)-piperazine-1-sulfonyl]-phenyl}-acetic acid] | < 5 µM | 5 to 100 µM | 5 to 100 µM
10 | C[C@H]1CN(c2ccc(C(F)(F)F)c(F)c2)CCN1S(=O)(=O)c1cccc(CC(=O)O)c1 [Example 215, {3-[4-(3-Fluoro-4-trifluoromethyl-phenyl)-2-(S)-methyl-piperazine-1-sulfonyl]-phenyl}-acetic acid] | < 5 µM | 5 to 100 µM | 5 to 100 µM
11 | Cc1cc(CC(=O)O)cc(S(=O)(=O)N2CCN(c3ccc(C(F)(F)F)c(F)c3)C[C@@H]2C)c1 [Example 216, {3-[4-(3-Fluoro-4-trifluoromethyl-phenyl)-2-(S)-methyl-piperazine-1-sulfonyl]-5-methyl-phenyl}-acetic acid] | < 5 µM | 5 to 100 µM | 5 to 100 µM
12 | Cc1ccc(S(=O)(=O)N2CCN(c3ccc(C(F)(F)F)c(F)c3)C[C@@H]2C)cc1CC(=O)O [Example 217, {5-[4-(3-Fluoro-4-trifluoromethyl-phenyl)-2-(S)-methyl-piperazine-1-sulfonyl]-2-methyl-phenyl}-acetic acid] | < 5 µM | 5 to 100 µM | 5 to 100 µM
13 | C[C@H]1CN(S(=O)(=O)c2cccc(CC(=O)O)c2)CCN1c1ccc(C(F)(F)F)c(F)c1 [Example 218, {3-[4-(3-Fluoro-4-trifluorometbyl-phenyl)-3-(S)-methyl-piperazine-1-sulfonyl]-phenyl}-acetic acid] | < 5 µM | < 5 µM | 5 to 100 µM
14 | Cc1cc(CC(=O)O)cc(S(=O)(=O)N2CCN(c3ccc(C(F)(F)F)c(F)c3)[C@@H](C)C2)c1 [Example 219] | < 5 µM | 5 to 100 µM | 5 to 100 µM
15 | C[C@@H]1CN(c2ccc(C(F)(F)F)cn2)C[C@H](C)N1S(=O)(=O)c1cccc(CC(=O)O)c1 [Example 220, {3-[2,6-Dimethyl-4-(5-trifluoromethyl-pyridin-2-yl)-piperazine-1-sulfonyl]-phenyl}-acetic acid] | < 5 µM | 5 to 100 µM | > 100 µM
16 | C[C@H]1CN(S(=O)(=O)c2cccc(CC(=O)O)c2)CCN1c1ccc(OC(F)(F)F)cc1 [Example 221, {3-[3-(s)-Methyl-4-(4-trifluoromethoxy-phenyl)-piperazine-1-sulfonyl]-phenyl}-acetic acid] | < 5 µM | 5 to 100 µM | 5 to 100 µM
17 | Cc1cc(CC(=O)O)cc(S(=O)(=O)N2[C@H](C)CN(c3ccc(C(F)(F)F)c(F)c3)C[C@@H]2C)c1 [Example 222] | < 5 µM | 5 to 100 µM | > 100 µM
18 | Cc1cc(CC(=O)O)cc(S(=O)(=O)N2CCN(c3ccc(OC(F)(F)F)cc3)CC2)c1 [Example 223, {3-Methyl-5-[4-(4-trifluoromethoxy-phenyl)-piperazine-1-sulfonyl]-phenyl}-acetic acid] | < 5 µM | 5 to 100 µM | 5 to 100 µM
19 | Cc1cc(CC(=O)O)cc(S(=O)(=O)N2CCN(c3ccc(OC(F)(F)F)cc3)[C@@H](C)C2)c1 [Example 224, {3-Methyl-5-[3-(s)-methyl-4-(4-trifluoromethoxy-phenyl)-piperazine-1-sulfonyl]-phenyl}-acetic acid] | < 5 µM | 5 to 100 µM | 5 to 100 µM
20 | Cc1cc(CC(=O)O)cc(S(=O)(=O)N2CCN(c3ccc(C(F)(F)F)cn3)CC2)c1 [Example 225] | < 5 µM | 5 to 100 µM | < 5 µM
21 | C[C@H]1CN(c2ccc(OC(F)(F)F)cc2)CCN1S(=O)(=O)c1cccc(CC(=O)O)c1 [Example 226, {3-[2-(s)-Methyl-4-(4-trifluoromethoxy-phenyl)-piperazine-1-sulfonyl]-phenyl}-acetic acid] | < 5 µM | 5 to 100 µM | 5 to 100 µM
22 | C[C@@H]1CN(S(=O)(=O)c2cccc(CC(=O)O)c2)C[C@H](C)N1c1ccc(C(F)(F)F)cn1 [Example 227, 2-(3-(-3,5-Dimethyl-4-(5-(trifluoromethyl)pyridine-2-yl)piperazin-1-ylsulfonyl)phenyl)acetic acid] | < 5 µM | 5 to 100 µM | < 5 µM
23 | Cc1cc(CC(=O)O)cc(S(=O)(=O)N2C[C@@H](C)N(c3ccc(C(F)(F)F)cn3)[C@@H](C)C2)c1 [Example 228, 2-(3-(-3,5-Dimethyl-4-(5-(trifluoromethyl)pyridine-2-yl)piperazin-1-ylsulfonyl)-5-methylphenyl)acetic acid] | < 5 µM | 5 to 100 µM | < 5 µM
